According to US4253997A, “Anti-ovulatory decapeptides” (American Home Products Corporation, priority 1979, dated 1981):

How the values were obtained:
ovulation [1] = assay: Anti-ovulatory activity in proestrus rats (oviducts inspected for ova); type: in vivo, Sprague-Dawley CD rats; conditions: single administration at 1200 hours of proestrus
Experimental: The product of Example 2 was injected subcutaneously, in corn oil, as a single administration at 1200 hours on the day of proestrus (at least 2.5 hours prior to the commencement of the ovulatory LH surge). The rats were sacrificed on the morning of estrus (the day following proestrus) and the oviducts were inspected for the presence of ova under a dissecting microscope. The number of animals ovulating and the percent inhibition were as follows: […]

[2] = system: leuteinizing hormone (LH) release; conditions: LH-RH = 100 percent; cited from earlier work
ovulation [3] = conditions: administered at noon of proestrus; cited from earlier work
LH-RH = conditions: in vitro; cited from earlier work

## D-(5-Oxoprolyl)-D-phenylalanyl-D-3-(1-naphthyl)-alanyl-L-seryl-L-tyrosyl-D- 3-(1-naphthyl)-alanyl-L-leucyl-L-arginyl-L-prolyl-glycine acetate salt [Example 2]
Ovulation [1]; 375 μg s.c. in corn oil
  number of animals ovulating: 5/6
  percent inhibition of ovulation: 17%
Ovulation [1]; 500 μg s.c. in corn oil
  number of animals ovulating: 6/20
  percent inhibition of ovulation: 70%
Ovulation [1]; 1000 μg s.c. in corn oil
  number of animals ovulating: 1/14
  percent inhibition of ovulation: 93%

## Nal(1)^3 -LH-RH
[2]
  potency as LH releasing agent relative to LH-RH: 187.1%

## [D-pGlu^1, D-Phe^2, D-Trp^3,6 ]-LH-RH
Ovulation [3]
  effective dose for in vivo inhibition of ovulation: 20 to 25 mg
LH-RH
  IDR50 (inhibitory molar dose ratio antagonist/LH-RH): 3/1
